The text below walks through data of US20060263895A1, “Method for monitoring the stereoselectivity and relative rate of organic chemical reactions” (priority 2005, published 2006).

Where two headings read alike, the source gives them in different places.

Test [1] addresses T1, Lactobacillus kefir alcohol dehydrogenase (LKADH) (Lentilactobacillus kefiri, UniProt Q6WVP7).
T1 sequence (Q6WVP7 1-252): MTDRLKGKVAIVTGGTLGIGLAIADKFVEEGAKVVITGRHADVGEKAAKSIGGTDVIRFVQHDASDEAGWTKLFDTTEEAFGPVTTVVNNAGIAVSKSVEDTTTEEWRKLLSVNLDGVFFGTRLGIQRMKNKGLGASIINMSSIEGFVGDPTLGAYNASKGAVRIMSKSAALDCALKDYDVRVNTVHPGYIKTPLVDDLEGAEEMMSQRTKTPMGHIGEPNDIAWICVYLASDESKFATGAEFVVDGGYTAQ
Briefly: LKADH oxidation of 1,2-hexenediol. The test is classed as biochemical. The source says:
(§1) The following examples illustrate the invention with respect to an in situ enzymatic screening (ISES) method to predict the enantioselectivity of chiral catalysts for the hydrolytic kinetic resolution (HKR) of (±) hexene oxide. Above, it was shown that the method of the invention may be employed to predict the enantioselectivity and relative rate of a catalyst library for HKR of (±)-propylene oxide using horse liver alcohol dehydrogenase (HLADH) and Thermoalaerobium brockii alcohol dehydrogenase (TBADH).

For a further test, the target named is T2, HLADH (Equus caballus, UniProt P00327).
T2 construct: purchased; host or cells: equine liver
T2 sequence (P00327 whole entry): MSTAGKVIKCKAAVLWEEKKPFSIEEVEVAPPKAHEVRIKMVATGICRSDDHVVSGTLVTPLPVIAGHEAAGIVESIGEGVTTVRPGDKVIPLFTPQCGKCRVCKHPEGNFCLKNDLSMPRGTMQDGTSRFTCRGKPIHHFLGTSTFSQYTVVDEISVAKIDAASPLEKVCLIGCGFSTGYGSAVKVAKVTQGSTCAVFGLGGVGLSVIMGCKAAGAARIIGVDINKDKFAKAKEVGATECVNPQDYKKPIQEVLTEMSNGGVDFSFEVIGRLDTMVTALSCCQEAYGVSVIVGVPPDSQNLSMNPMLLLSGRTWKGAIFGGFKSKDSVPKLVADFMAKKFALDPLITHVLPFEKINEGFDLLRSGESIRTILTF
The test can be described thus: HLADH oxidation of 1,2-hexenediol. It counts as biochemical, horse.
Text: as §1

A short description of test [2]: Catalyst performance in the ISES cuvette (biphasic HKR), ee of isolated diol by chiral HPLC. The settings on record: diol isolated from merged ISES cuvettes. As for the experimental part: For several catalysts, control experiments were run to assess whether running the HKR under biphasic conditions influences the enantioselectivity of these Co(III)-salen HKR catalysts. In such cases, parallel duplicate ‘double-cuvette’ runs were chosen (i.e. two HLADH cuvettes and two TBADH cuvettes for a single catalyst). Following the ISES runs, the contents of all four reporting cuvettes were merged. Unreacted epoxide was rapidly removed under Ar stream. Following dilution with CH2Cl2 (˜50 mL), sodium sulfate was added to adsorb remaining water. The resulting organic solution was filtered and the filter cake washed with CH2Cl2 (2×20 mL). Following evaporation of the solvent, the crude diols were derivatized directly with p-bromobenzoyl imidazole to yield the 1,2-propanediol bis(pbromobenzoate) esters, which were then purified by silica gel chromatography to estimate diol yields. Enantiomeric excesses were determined using chiral HPLC, as before. […] Indeed, the ee's seen from diol isolated directly out of the cuvette generally appear slightly higher than those obtained under ‘Jacobsen conditions,’ probably reflecting the shorter reaction times employed in the ISES experiment.

Test [3] in a line: HKR of (±)-propylene oxide under standard neat 'Jacobsen conditions' (NMR conversion, chiral HPLC ee). The settings on record: for NMR conv. (time): 3 h; for NMR conv. (time) / % ee (HPLC): loading 0.25 mol %; for % ee (HPLC) / % ee of the 1,2-propanediol product, as observed by chiral HPLC (lower number): + = (S), − = (R); for % ee of the 1,2-propanediol product, as observed by chiral HPLC (lower number): neat propylene oxide, 0.55 equiv. H2O, 0.25 mol % catalyst, 3 h reaction time. In a few lines: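 Co(III)-salen catalyst (0.25 mol %) with neat (±)-propylene oxide and water (0.55 equiv.), added at 0° C., then stirred at room temperature, usually 3 h (longer if <5% conversion). Conversion by 1H NMR; diol isolated, derivatized to bis(p-bromobenzoate), ee by chiral HPLC.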

The nature of test [4]: Double cuvette-ISES (in situ enzymatic screening) of Co(III)-salen mediated HKR of (±)-propylene oxide. The conditions noted are these: for % ee predicted double cuvet-ISES: bilayer; for % ee of the 1,2-propanediol product, as predicted by double-cuvette ISES (upper number): bilayer of pH 8.6 buffer over 7.2 M epoxide in CHCl3, 0.25 mol % catalyst, 15-35 min, + = (S), − = (R). In a few lines:
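Co(III)-salen catalysts (0.25 mol %) in CHCl3 with (±)-propylene oxide (7.2 M in organic layer), overlaid with aqueous reporting layers in 50 mM sodium pyrophosphate, final pH 8.6. Reporters: 0.35 U HLADH/7.2 mM NAD+ ((S)-diol) or 0.35 U TBADH/2.2 mM NADP+ ((R)-diol). A340 increase gives enantioselectivity and relative rate estimates.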

The nature of test [5]: [total 1,2-propanediol] in aqueous ISES layer by 1H NMR. As for the experimental part:
The concentration of 1,2-propanediol in the aqueous layer was estimated under typical ISES conditions using 1H NMR spectroscopy. The bilayer was prepared as usual for double cuvette-ISES (Section V), but for the substitution of D2O for H2O in the buffer, and the elimination of the dehydrogenase enzymes. After 15 min, the aqueous layer (300 μL of 500 μL total) was withdrawn and mixed with a fresh solution of imidazole of known concentration (also 300 μL in D2O), as an internal concentration standard. Accumulation of the 1H NMR spectrum, followed by integration and quantitation, provided an experimental measure of [total diol] in the aqueous reporting layer at t=15 minutes for the catalyst under investigation. The observed diol concentrations for ten catalysts examined in this way are collected in Table S6, below. These have been normalized to the value for the catalyst derived from salen 3b (arbitrarily assigned a rate of 1.0).

Test [6] concerns the target T3, alcohol dehydrogenase from Thermoanaerobium brockii (TBADH) (Thermoanaerobacter brockii, UniProt P14941).
T3 construct: purchased
T3 sequence (P14941 1-352): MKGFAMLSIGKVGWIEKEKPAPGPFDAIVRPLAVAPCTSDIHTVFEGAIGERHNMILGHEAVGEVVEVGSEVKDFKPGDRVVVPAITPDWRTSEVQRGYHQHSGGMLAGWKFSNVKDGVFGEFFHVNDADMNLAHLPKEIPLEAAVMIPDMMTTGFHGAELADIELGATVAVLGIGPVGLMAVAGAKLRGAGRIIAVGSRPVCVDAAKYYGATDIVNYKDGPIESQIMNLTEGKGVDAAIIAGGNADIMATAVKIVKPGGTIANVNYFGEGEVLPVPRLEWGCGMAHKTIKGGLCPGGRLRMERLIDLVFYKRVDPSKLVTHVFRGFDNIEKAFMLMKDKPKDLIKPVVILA
The settings on record: read-out: reported Km value for NADP+ with TBADH; cited from earlier work.

In test [7] the target is T3, alcohol dehydrogenase from Thermoanaerobium brockii (TBADH). Briefly: TBADH relative velocity (enantioselectivity) and Michaelis-Menten kinetics with 1,2-propanediol. The test is classed as biochemical. As for the experimental part:
2. TBADH: The enantioselectivity of […] was estimated from the ratios of the initial velocities of (R)— vs. (S)-1,2-propanediol at fixed concentrations between 3.0 and 80 mM at 25° C. Each velocity measurement was performed in triplicate. The assay cuvette contained the following: 2.2 mM NADP+ (10 μL from a 220 mM stock), 0.113 U of TBADH, and various concentrations of either (R) or (S)-enantiomer of 1,2-propanediol. In all cases, the final volume was adjusted to 1 mL using 50 mM sodium pyrophosphate buffer, pH 8.8.
(§2) Indeed, this was confirmed by the determination of Km's for each antipode of 1,2-propanediol for each enzyme. For each antipodal diol, the same data as were used to survey dehydrogenase enantioselectivity, as a function of diol concentration, were plotted in Michaelis-Menten fashion, as v0 vs. [S] (FIGS. 3 and 4). For each dehydrogenase, the data curve for (R)-1,2-propanediol is shown by -▪-, and those for the (S)-enantiomer by -●-. In all four cases, the data were processed by […], least squares fitting to a hyperbolic function. The resulting curve fits and best fit hyperbolic equations are presented above.

Test [8] addresses T4, alcohol dehydrogenase from horse liver (HLADH) (Equus caballus, UniProt P00327).
T4 construct: purchased; host or cells: equine liver
The test can be described thus: HLADH relative velocity (enantioselectivity) and Michaelis-Menten kinetics with 1,2-propanediol. The test is classed as biochemical. As for the experimental part: 1. HLADH: The enantioselectivity of […] was estimated from the ratios of the initial velocities of (R)— vs. (S)-1,2-propanediol at fixed concentrations between 4.0 and 100 mM at 25° C. Each velocity measurement was made in duplicate. The assay cuvette contained the following: 7.2 mM NAD+ (33 μL from a 220 mM stock), 0.049 U of HLADH, and various concentrations of either the (R)— or (S)-enantiomer of 1,2-propanediol. In all cases, the final volume was adjusted to 1 mL using 50 mM sodium pyrophosphate buffer, pH 8.8.
as §2

The mark [9] stands for this setting: reaction stopped at the time given (mostly 3 h).

T4 sequence (P00327 whole entry): as the sequence (P00327 whole entry) above

In the case of `CCCCC(O)CO` (stereo not shown), the “selectivity of LKADH for the oxidation of 1,2-hexenediol” value in test [1] is on record as “high (S)-selectivity”. Further, the “selectivity of HLADH for the oxidation of 1,2-hexenediol” value on HLADH is “modest (S)-selectivity”.

For “N,N′-Bis(3′,5′-di-tert-butylsalicylidene[1R-(1α,2α,5α)]-2-amino-7,7-dimethyl-2-bicyclo[3.3.1]heptane-ethanamine [Salen 1a]”, the “% ee measured biphasic conds.” value in test [2] is on record as 87 % ee. Moreover, in test [3], the “NMR conv. (time)” value is 12 (3 h) %; the “% ee measured neat 'Jacobsen conditions'” value amounted to 72 % ee; the “% ee of the 1,2-propanediol product, as observed by chiral HPLC (lower number)” value (shortened to “% ee … (lower number)”) is reported as “+72 % ee”. In addition, in [3] (setting [9]), the “% ee (HPLC)” value is “+72 (S) % ee”. Moreover, in test [4], the “% ee predicted double cuvet-ISES” value was 56 % ee and the “% ee of the 1,2-propanediol product, as predicted by double-cuvette ISES (upper number)” value was “+56 % ee”. Further, the “[diol] (mM) @ 15 min” value in test [5] (aqueous ISES layer, 1H NMR, t = 15 min) amounted to 19 mM. The compound further registered a Norm. in test [5] (normalized to the catalyst derived from salen 3b (rate 1.0)) of 0.20.

For `NC(=O)c1ccc[n+]([C@@H]2O[C@H](COP(=O)([O-])OP(=O)(O)OC[C@H]3O[C@@H](n4cnc5c(N)ncnc54)[C@H](OP(=O)(O)O)[C@@H]3O)[C@@H](O)[C@H]2O)c1` [NADP+], in test [6], the Km is 0.013 mM.

`CC(O)CO` (stereo not shown) [1,2-Propanediol]: the “vR/vS of TBADH” value stood at 10.8 in test [7] (1,2-propanediol conc. 3 mM, 25° C.); 8.9 in [7] (1,2-propanediol conc. 6 mM); 9.9 in test [7] (1,2-propanediol conc. 10 mM); 10.6 in test [7] (1,2-propanediol conc. 20 mM); 9.1 in test [7] (1,2-propanediol conc. 30 mM); 8.4 in test [7] (1,2-propanediol conc. 40 mM). In addition, the entries for the “vR/vS of TBADH” value in test [7] (1,2-propanediol conc. 50 mM), in test [7] (1,2-propanediol conc. 60 mM) and in [7] (1,2-propanediol conc. 80 mM) were 9.0, 9.1 and 8.6, respectively. Further, the “vS/vR of HLADH” value in [8] (1,2-propanediol conc. 4 mM, 25° C.) amounted to 4.0; in test [8] (1,2-propanediol conc. 8 mM) it was 3.6; in test [8] (1,2-propanediol conc. 12 mM), 2.8; in test [8] (1,2-propanediol conc. 16 mM) it was 2.4; in [8] (1,2-propanediol conc. 20 mM), 2.7; in test [8] (1,2-propanediol conc. 30 mM), 2.8. The “vS/vR of HLADH” value in test [8] (1,2-propanediol conc. 40 mM) came out at 3.0; in test [8] (1,2-propanediol conc. 50 mM), 2.7; in test [8] (1,2-propanediol conc. 100 mM) it was 2.6.

`CC(C)(C)c1cc(C=NC[C@H](Cc2cccc3ccccc23)N=Cc2cc(C(C)(C)C)cc(C(C)(C)C)c2O)c(O)c(C(C)(C)C)c1` [Salen 4a, N,N′-Bis(3′,5′-di-tert-butylsalicylidene)-(1S)-(α-naphthylmethyl)-1,2-ethylenediamine]: in test [2], the “% ee measured biphasic conds.” value was determined as 82 % ee. Further, in [3], the “NMR conv. (time)” value is on record as 35 (3 h) %; the “% ee measured neat 'Jacobsen conditions'” value stood at 76 % ee; the “% ee … (lower number)” value is “+76 % ee”. Moreover, in test [3] (setting [9]), the “% ee (HPLC)” value is “+76 (S) % ee”. For the same compound, in [4], the “% ee predicted double cuvet-ISES” value was 77 % ee and the “% ee of the 1,2-propanediol product, as predicted by double-cuvette ISES (upper number)” value is reported as “+77 % ee”.

As for `C[C@@H](O)CO` [(R)-1,2-propanediol], in test [7], the “enantiomeric preference of TBADH” value was “significant preference”. Further, the Km in test [7] (TBADH, 2.2 mM NADP+, pH 8.8, 25° C.) is 17 ± 2 mM; in test [8] (HLADH, 7.2 mM NAD+, pH 8.8, 25° C.) it was 25 ± 2 mM. The Vmax in [7] (TBADH, 0.113 U) was 487±18 mAbs min−1; in test [8] (HLADH, 0.049 U), 355±9 mAbs min−1.

Regarding `CO[C@H]1[C@@H]2OC(C)(C)O[C@@H]2COC1(CN=Cc1cc(C(C)(C)C)cc(C(C)(C)C)c1O)N=Cc1cc(C(C)(C)C)cc(C(C)(C)C)c1O` (stereo partly shown) [Salen 7a, N,N′-Bis(3′,5′-di-tert-butylsalicylidene)-3-O-methyl-4,5-O-isopropylidene-1,2-dideoxy-Dfructopyranosyl-1,2-diamine], the “% ee measured biphasic conds.” value in test [2] is recorded as −55 % ee. For the same compound, in test [3] (listed as 7a*), the “NMR conv. (time)” value was 7 (3 h) % and the “% ee … (lower number)” value is on record as −59 % ee. Also, the “% ee (HPLC)” value in test [3] (reaction stopped at the time printed in the row (mostly 3 h), listed as 7a*) is −59 (R) % ee. For the same compound, the “% ee measured neat 'Jacobsen conditions'” value in [3] is given as −59 % ee. In test [4], the “% ee predicted double cuvet-ISES” value is −33 % ee. In addition, the “% ee of the 1,2-propanediol product, as predicted by double-cuvette ISES (upper number)” value in [4] (listed as 7a*) is recorded as −33 % ee.
